Test results from patent US20110111016A1, “NON-DNA BASE-CONTAINING POLYNUCLEOTIDE COMPOSITIONS AND THEIR USE FOR THE MODULATION OF IMMUNE RESPONSES” (priority 2009, published 2011).

Biological target: T1, human TLR4 (Homo sapiens, UniProt O00206+Q9Y6Y9)
T1 construct: host or cells: HEK293
Test: NF-κB activation (secreted alkaline phosphatase reporter) in HEK293 cells expressing human TLR4
Format: cell-based
Conditions: HEK293/hTLR4 cell line; polynucleotide final concentration 10 μg/mL; 16-20 hours
Procedure: Toll-like receptors (TLR) are known to interact with a number of natural and synthetic molecules that can function as immune adjuvants. Examples of these molecules are Poly (I:C) polynucleotides, lipopolysaccharide and CpG-containing polynucleotides. The interaction of non-DNA base-containing polynucleotides (SEQ ID NOs: 1-3) to interact with TLR and induce down-stream signaling was tested by assessing NF-κB activation in HEK293 cells expressing human TLR2, 3, 4, 5, 7, 8 and 9. TLR engagement was determined by measurement of secreted alkaline phosphatase, under the control of a reporter inducible by NF-κB. Appropriate positive controls were used for each TLR. The non-DNA base-containing polynucleotides were dissolved in sterile water at a concentration of 100 μg/mL, and used at a final concentration of 10 μg/mL. HEK293 cells containing the appropriate TLR and NF-κB reporting system (InvivoGen, San Diego, Calif., USA) were placed in wells of 96 well plates (25,000-50,000 cells, in a final volume of 200 μL medium designed for the detection of NF-κB induced secreted alkaline phosphatase expression), and incubated with non-DNA base-containing polynucleotides or positive controls for 16-20 hours. TLR activating activity was determined by measurement of absorbance at 650 nm wavelength using a Coulter AD340C absorbance detector. The results shown are expressed as Optical Density (OD).

T1 sequence (Q9Y6Y9 17-160): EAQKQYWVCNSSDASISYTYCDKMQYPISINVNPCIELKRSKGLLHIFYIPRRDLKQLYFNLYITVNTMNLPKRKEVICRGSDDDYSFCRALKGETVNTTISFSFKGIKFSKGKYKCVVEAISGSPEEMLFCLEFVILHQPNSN
T1 sequence (O00206 24-839): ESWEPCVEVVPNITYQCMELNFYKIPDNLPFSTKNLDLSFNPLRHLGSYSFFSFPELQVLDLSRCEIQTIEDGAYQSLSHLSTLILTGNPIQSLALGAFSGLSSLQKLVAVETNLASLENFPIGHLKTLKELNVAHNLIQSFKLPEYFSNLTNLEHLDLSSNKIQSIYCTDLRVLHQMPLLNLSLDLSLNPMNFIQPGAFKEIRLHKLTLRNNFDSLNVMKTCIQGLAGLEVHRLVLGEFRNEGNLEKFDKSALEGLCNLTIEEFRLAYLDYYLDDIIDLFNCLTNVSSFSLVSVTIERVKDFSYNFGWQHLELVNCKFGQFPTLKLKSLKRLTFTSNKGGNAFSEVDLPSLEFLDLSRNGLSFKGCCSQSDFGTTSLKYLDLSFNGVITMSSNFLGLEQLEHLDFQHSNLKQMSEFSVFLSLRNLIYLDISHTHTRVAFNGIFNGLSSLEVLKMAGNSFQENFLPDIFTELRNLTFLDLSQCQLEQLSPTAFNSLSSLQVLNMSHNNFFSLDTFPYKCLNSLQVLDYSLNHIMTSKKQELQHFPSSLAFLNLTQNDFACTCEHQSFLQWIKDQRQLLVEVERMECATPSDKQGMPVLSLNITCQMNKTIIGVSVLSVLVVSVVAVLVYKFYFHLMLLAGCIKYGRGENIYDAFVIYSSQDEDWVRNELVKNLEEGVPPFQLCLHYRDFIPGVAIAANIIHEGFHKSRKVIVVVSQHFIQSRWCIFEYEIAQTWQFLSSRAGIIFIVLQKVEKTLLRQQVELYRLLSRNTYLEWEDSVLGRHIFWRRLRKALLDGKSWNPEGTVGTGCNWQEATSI

Substance: IIGTII [SEQ ID NO: 3]
- TLR activation, Optical Density at 650 nm, hTLR4: 0.050

Substance: NebGGTGNeb (DNA NGGTGN; Nebularine at both ends, sugar and linkages not given here, further chemistry not given here) [SEQ ID NO: 1, 5′-OH, 3′-OH non-DNA base-containing polynucleotide]
- TLR activation, Optical Density at 650 nm, hTLR4: 0.050

Substance: UUGTUU [SEQ ID NO: 2]
- TLR activation, Optical Density at 650 nm, hTLR4: 0.052
